{
  "source": "patent US20150284347A1",
  "about": "“NEW BENZENE SULFONAMIDE THIAZOLE COMPOUNDS” (INSERM (INSTITUT NATIONAL DE LA SANTÉ ET DE LA RECHERCHE …, priority 2012, published 2015)",
  "key": {"[1]": {"system": "melanoma cells resistant to dabrafenib", "assay": "Trypan blue cell viability, melanoma cells resistant to dabrafenib", "type": "cell-based, human", "conditions": "patient melanoma cells resistant to dabrafenib, FIG. 5", "description": "The measure of cell viability was performed in the same way as for FIG. 1. Results are expressed as percentage of cells alive relatively to the number of living cells in the presence of DMSO, which is a negative control\nCells were seeded in 6-well plates (60000 cells/well), depleted and incubated with compounds for the times indicated. Then cells were detached in the presence of 2000 of HyQTase (Thermo) and 2 ml of RPMI 1640 Glutamax (Gibco) was added to the cell solution. 100 of this solution was stained for 1 minute with 100 of 0.4% trypan blue before counting with a Malassez chamber.\nMelanoma cells resistant to dabrafenib wee prepared from patients treated and presented a resistance to dabrafenib. dabrafenib, [HA15], [SR47] and [SR50] were tested on these resistant cells, in order to determine their activity on cell viability of resistant melanoma cells, as illustrated in FIG. 5."}, "A375 melanoma cells": {"system": "A375 melanoma cells", "assay": "A375 melanoma xenograft tumor development in nude mice", "type": "in vivo", "conditions": "0.7 mg/mouse/day over 24 days, athymic nude mice", "description": "To assess a potential antineoplastic effect of (HA15) and (SR50) in vivo, A375 melanoma cells (2.5×10^6) were injected subcutaneously in 6-week-old female athymic nude mice and treated 5 days later by injection of vehicle (labrafil) or different compounds such as PLX4032, (HA15) and (SR50) (0.7 mg/mouse/day) over a period of 24 days. Inhibitory effect is expressed as the tumor volume (mm^3) on day 8, 11, 15, 18, 22 and 24.\nAthymic BALB/C nu/nu mice (Harlan) were used. The animals were 6 weeks old and weighed between 20 and 25 g. The mice were housed in the animal's C3M in a 12 h/12 h cycle. The animals received water and food ad libitum. Mice were first acclimated for one week and then injected with A375 cells (2.5 million cells in 200 μl of PBS) subcutaneously into the right and left sides. Treatment was started eight days after injection of cancer cells (when tumors were visible). The various compounds were diluted in a mixture of Labrafil (90%) (Gattefosse), Tween 80 (1%) and N,N-Dimethylacetamide (9%). Five groups of six mice treated every day intraperitoneally with 0.7 mg/day of PLX4032, SR44 (HA15), SR47 (HA32), SR50 (JG25) or with the mixture of Labrafil in control were defined. Three times a week the tumor size was measured using a caliper. […]"}, "normal human melanocytes": {"system": "normal human melanocytes", "assay": "Trypan blue cell viability, normal melanocytes", "type": "cell-based", "conditions": "10 μM, FIG. 2", "description": "Primary cell cultures of human normal melanocytes were prepared from human foreskin. In order to determine the effect of compound HA15 on cell viability of melanocytes and fibroblasts, 10 μM of ciglitazone or 10 μM of HA15 were added to the cell samples. The measure of cell viability was performed in the same way as for FIG. 1. Results are expressed as the percentage of living cells relatively to the number of living cells in the presence of DMSO, as for FIG. 1. Normal human melanocytes (NHM) prepared from foreskins of newborns were grown under 5% CO2 at 37° C. in MCDB 153 (Sigma) supplemented with 2% FCS, bovine pituitary extract (10 μg/ml), PMA (8 nM), bFGF (ing/nil), insulin (5 μg/ml), hydrocortisone (0.5 μg/ml), forskolin (10 μM), gentamicin (20 μg/ml), penicillin/streptomycin/amphotericin B (100 U/ml) (Invitrogen). Cells were seeded in 6-well plates (60000 cells/well), depleted and incubated with compounds for the times indicated. Then cells were detached in the presence of 2000 of […] (Thermo) and 2 ml of RPMI 1640 Glutamax (Gibco) was added to the cell solution. 100 of this solution was stained for 1 minute with 100 of 0.4% trypan blue before counting with a Malassez chamber. The effect of compound HA15 on cell viability of melanocytes and fibroblasts was studied, as illustrated by FIG. 2. Primary cell cultures of human normal melanocytes were prepared from human foreskin. […]"}, "normal human fibroblasts": {"system": "normal human fibroblasts", "assay": "Trypan blue cell viability, normal fibroblasts", "type": "cell-based", "conditions": "10 μM, FIG. 2", "description": "Primary cell cultures of human normal melanocytes were prepared from human foreskin. In order to determine the effect of compound HA15 on cell viability of melanocytes and fibroblasts, 10 μM of ciglitazone or 10 μM of HA15 were added to the cell samples. The measure of cell viability was performed in the same way as for FIG. 1. Results are expressed as the percentage of living cells relatively to the number of living cells in the presence of DMSO, as for FIG. 1. Normal human fibroblasts prepared from foreskins of newborns were grown under 5% CO2 at 37° C. in DMEM medium supplemented with 10% FCS and penicillin/streptomycin (100 U/ml/[…]). Cells were seeded in 6-well plates (60000 cells/well), depleted and incubated with compounds for the times indicated. Then cells were detached in the presence of 2000 of […] (Thermo) and 2 ml of RPMI 1640 Glutamax (Gibco) was added to the cell solution. 100 of this solution was stained for 1 minute with 100 of 0.4% trypan blue before counting with a Malassez chamber. The effect of compound HA15 on cell viability of melanocytes and fibroblasts was studied, as illustrated by FIG. 2. Primary cell cultures of human normal melanocytes were prepared from human foreskin. In order to determine the effect of compound HA15 on cell viability of melanocytes and fibroblasts, 10 μM of ciglitazone or 10 μM of HA15 were added to the cell samples. […]"}, "phosphorylation": {"system": "phosphorylation", "assay": "Western blot of MAP vemurafenib activation on A375 melanoma cells", "type": "cell-based", "conditions": "FIG. 6", "description": "FIG. 6: Western Blots showing the effect of compounds of the invention and dabrafenib on MAP Vemurafenib activation on A375 melanoma cells.\nProteins were extracted in Fisher buffer containing TRIS-HCl pH 7.5 50 mM, NaCl 15 mM, Triton X-100 1% and proteases and phosphatases inhibitors. Briefly, cell lysates (30 μg) were separated by SDS-PAGE, transferred onto a PVDF membrane (Millipore, Molsheim, France) and then exposed to the appropriate antibodies. Proteins were visualized with the ECL system from Amersham (Arlington, Heights, Ill., USA). The western blots shown are representative of at least 3 independent experiments.\nIndeed, dabrafenib as PLX4032 inhibits activation of B-Raf on B-Raf V600E mutated melanoma. The inhibition of B-Raf leads to inhibition of MAP Vemurafenib cascade and could be visualized through inhibition of MAP vemurafenib phosphorylation."}},
  "data": [
    {"molecule": "CC(=O)Nc1nc(-c2ccc(NS(=O)(=O)c3cccc4c(N(C)C)cccc34)cc2)cs1", "note": "[HA32, N-(4-(4-(5-(dimethylamino)naphthalene-1-sulfonamido)phenyl)thiazol-2-yl)acetamide]", "values": [
      {"measurement": "cell viability of resistant melanoma cells", "setting": "[1]", "result": "inhibit cell viability of resistant melanoma cells"}
    ]},
    {"molecule": "CC(=O)Nc1nc(-c2cccc(NS(=O)(=O)c3ccc(C)cc3)c2)cs1", "note": "[SR50, N-(4-(3-(4-methylphenylsulfonamido)phenyl)thiazol-2-yl)acetamide]", "values": [
      {"measurement": "ability of cells to develop visible tumors", "setting": "A375 melanoma cells", "result": "markedly attenuated"},
      {"measurement": "cell viability of resistant melanoma cells", "setting": "[1]", "result": "inhibit cell viability of resistant melanoma cells"}
    ]},
    {"molecule": "CC1(COc2ccc(CC3SC(=O)NC3=O)cc2)CCCCC1", "note": "(centres unmarked) [ciglitazone, reference compound]", "values": [
      {"measurement": "cell viability of normal melanocytes", "setting": "normal human melanocytes", "result": "not affected"},
      {"measurement": "cell viability of normal fibroblasts", "setting": "normal human fibroblasts", "result": "not affected"}
    ]},
    {"molecule": "CC(C)(C)c1nc(-c2cccc(NS(=O)(=O)c3c(F)cccc3F)c2F)c(-c2ccnc(N)n2)s1", "note": "[dabrafenib]", "values": [
      {"measurement": "cell viability of resistant melanoma cells", "setting": "[1]", "result": "contrary to dabrafenib inhibit cell viability of resistant melanoma cells"},
      {"measurement": "MAP vemurafenib expression", "setting": "phosphorylation", "result": "did not modulate"},
      {"measurement": "MAP vemurafenib phosphorylation", "setting": "phosphorylation; versus DMSO", "result": "complete inhibition"}
    ]}
  ]
}
